# System: RAW 264.7 cells
# Assay: Production of ROS in cells (DCF-DA, flow cytometry)
# Type: cell-based, murine
# Details: RANKL 100 ng/mL; DCF-DA staining
# Procedure: After RAW 264.7 cells were aliquoted at 5×10^4 cells/well into 6-well plates and stabilized for 24 hours, RAW 264.7 cells were induced into differentiation by RANKL (100 ng/mL), treated with FO at each concentration, cultured for 5 days, and then stained at 37° C. for 30 minutes by treatment with 10 μM DCF-DA, and then measured using flow cytometry.
# It is known that oxidative stress in cells occurs during the differentiation of osteoclasts induced by RANKL. Therefore, the effects of FO on the production of ROS induced by RANKL was confirmed through DCF-DA staining.
smiles,measurement,value
CC(=O)N[C@@H](CS)C(=O)O [NAC],ROS increased in the osteoclasts treated with RANKL,also similarly observed

# — patent US20190381108A1, “COMPOSITION FOR IMPROVING BONE HEALTH, INCLUDING FUNCTIONAL FERMENTED MATERIAL USING OYSTERS” (Jeju National University Industry-Academic Cooperation …, priority 2018, published 2019)
